Broadly, the IC50 is the concentration that inhibits the measured activity by half.

This test deals with voltage-dependent calcium channels (cerebral cortex synaptosome). The test is described as follows: Measurement of voltage-dependent calcium channel activity by the use of a fluorescent pigment (fura 2). In kind it is cell-based. Conditions: rat cerebral cortex synaptosome, fura 2, KCl stimulation, compound incubated 10 minutes. The protocol: Measurement of Voltage-dependent Calcium Channel Activity by the use of a Fluorescent Pigment (fura 2)
Cerebral cortexes were removed from cut rat brains and disrupted roughly with scissors. These were introduced into a homogenizer, homogenized in 0.3 M saccharose and centrifuged at 4° C. (1,500 g×10 min). The resulting supernatant was further centrifuged at 4° C. (10,000 g×20 min). The resulting precipitates were suspended in 0.3 M saccharose. The suspension was layered on 0.8 M saccharose and centrifuged (10,000 g×30 min.).
4 μM fura 2/AM (Dojin Ltd.) was suspended in solution A to prepare a loading solution. To the synaptosome solution prepared in the method described above was added an equal volume of the loading solution, and the mixture was incubated for 40 minutes at room temperature.
As comparative and control compound, verapamil hydrochloride was used.
For `CC(C)C(C#N)(CCCN1CCN(CCOc2ccccc2F)CC1)c1ccccc1` (centres unmarked) [Example 31], the IC50 was 9.3 µM.
In the case of `CC(C)C(C#N)(CCCN1CCN(CCC(O)c2ccc(F)cc2)CC1)c1ccccc1` (centres unmarked) [Example 60, 1-[(4-Cyano-5-methyl-4-phenyl)hexyl]-4-[-hydroxy-3-(4-flurophenyl)propyl]piperazine], the IC50 stood at 10 µM.
Turning to `CC(C)C(C#N)(CCCN1CCN(CCOc2cccc(-c3cccnc3)c2)CC1)c1ccccc1` (centres unmarked) [Example 107, 1-[(4-Cyano-5-methyl-4-phenyl)hexyl]-4-{2-[3-(3-pyridyl)phenoxy]ethyl}piperazine], the IC50 was 4.1 µM.
On to `CC(C)C(C#N)(CCCN1CCN(CCOc2cccc(F)c2)CC1)c1cccs1` (centres unmarked) [Example 116, 1-[4-Cyano-5-methyl-4-(2-thienyl)hexyl]-4-[2-(3-fluorophenoxy)ethyl]piperazine], for which the IC50 is 5.5 µM.
With `CC(C)CC(C#N)(CCCN1CCN(CCOc2ccc(F)cc2)CC1)c1ccccc1` (centres unmarked) [Example 30, 1-[(4-Cyano-6-methyl-4-phenyl)hepthyl]-4-[2-(4-fluorophenoxy)ethyl]piperazine], the IC50 is 2.9 µM.
The result for `CC(C)C(C#N)(CCCN1CCN(CCOc2ccc(-n3ccnc3)cc2)CC1)c1ccccc1` (centres unmarked) [Example 111, 1-[(4-Cyano-5-methyl-4-phenyl)hexyl]-4-{2-[4-(imidazol-1-yl)phenoxy]ethyl}piperazine] reads above 16 µM.
Consider `CC(C)C(C#N)(CCCN1CCN(CCOc2ccccn2)CC1)c1ccccc1` (centres unmarked) [Example 71, 1-[(4-Cyano-5-methyl-4-phenyl)hexyl]-4-[2-(2-pyridyloxy)ethyl]piperazine], for which the IC50 is above 16 µM.
In the case of `CC(C)C(C#N)(CCCN1CCN(CCS(=O)(=O)Nc2ccc(F)cc2)CC1)c1ccccc1` (centres unmarked) [Example 67, 1-[(4-Cyano-5-methyl-4-phenyl)hexyl]-4-{2-[N-(4-fluorophenyl)sulfamoyl]ethyl}piperazine], the IC50 is 10 µM.
On to `CSc1ccc(OCCN2CCN(CCCC(C#N)(c3ccccc3)C(C)C)CC2)cc1` (centres unmarked) [Example 45, 1-[(4-Cyano-5-methyl-4-phenyl)hexyl]-4-[2-(4-methylthiophenoxy)ethyl]piperazine], for which the IC50 worked out at 4.6 µM.
On to `CC(C)C(C#N)(CCCN1CCN(CCOc2cccc(F)c2)CC1)c1ccccc1` (centres unmarked) [Example 32, 1-[(4-Cyano-5-methyl-4-phenyl)hexyl]-4-[2-(3-fluorophenoxy)ethyl]piperazine], for which the IC50 turned out to be 6.2 µM.
In the case of `C=C(C)C(C#N)(CCCN1CCN(CCOc2ccc(F)cc2)CC1)c1ccccc1` (centres unmarked) [Example 82, 1-[5-(4-Cyano-5-methyl-4-phenyl)hexenyl]-4-[2-(4-fluorophenoxyl)ethyl]piperazine], the IC50 was 5 µM.
Consider `COc1cc(F)ccc1OCCN1CCN(CCCC(C#N)(c2ccccc2)C(C)C)CC1` (centres unmarked) [Example 88, 1-[(4-Cyano-5-methyl-4-phenyl)hexyl]-4-[2-(2-methoxy-4-fluorophenoxy)ethyl]piperazine], for which the IC50 came to 4.9 µM.
For the molecule `CC(C)C(C#N)(CCCN1CCN(CCOc2ccncc2)CC1)c1ccccc1` (centres unmarked) [Example 99, 1-[(4-Cyano-5-methyl-4-phenyl)hexyl]-4-[2-(4-pyridyloxy)ethyl]piperazine], the IC50 is above 16 µM.
Regarding `CCC(CN1CCN(CCCC(C#N)(c2ccccc2)C(C)C)CC1)Oc1ccc(F)cc1` (centres unmarked) [Example 104, 1-[(4-Cyano-5-methyl-4-phenyl)hexyl]-4-[2-(4-fluorophenoxy)butyl]piperazine], the IC50 came to 2.2 µM.
Regarding `CC(C)C(C#N)(CCCN1CCN(CCOc2ccc(F)cc2)CC1)c1ccc(C#N)s1` (centres unmarked) [Example 114, 1-[4-Cyano-5-methyl-4-(2-cyano-5-thienyl)hexyl]-4-[2-(4-fluorophenoxy)ethyl]piperazine], the IC50 came out at 6.8 µM.
In the case of `CC(C)(O)C(C#N)(CCCN1CCN(CCOc2ccc(F)cc2)CC1)c1ccccc1` (centres unmarked) [Example 81, 1-[(4-Cyano-5-hydroxy-5-methyl-4-phenyl)hexyl]-4-[2-(4-fluorophenoxyl)ethyl]piperazine], the IC50 is above 16 µM.
Regarding `CC(C)C(C#N)(CCCN1CCN(CCOc2ccc(C#N)cc2)CC1)c1ccccc1` (centres unmarked) [Example 47, 1-[(4-Cyano-5-methyl-4-phenyl)hexyl]-4-[2-(4-cyanophenoxy)ethyl]piperazine], the IC50 is 13 µM.
Turning to `CC(C)c1cccc(N(C)CCN2CCN(CCCC(C#N)(c3ccccc3)C(C)C)CC2)c1` (centres unmarked) [Example 92, 1-[(4-Cyano-5-methyl-4-phenyl)hexyl]-4-{2-[N-methyl(3-Isopropylanilino)ethyl]}piperazine], the IC50 was determined as 1.8 µM.
Regarding `COc1cccc(OCCN2CCN(CCCC(C#N)(c3ccccc3)C(C)C)CC2)c1OC` (centres unmarked) [Example 40, 1-[(4-Cyano-5-methyl-4-phenyl)hexyl]-4-[2-(2,3-dimethoxyphenoxy)ethyl]piperazine], the IC50 is 10 µM.
`CC(C)C(C#N)(CCCN1CCN(CCOc2ccc(F)c(F)c2)CC1)c1ccccc1` (centres unmarked) [Example 35, 1-[(4-Cyano-5-methyl-4-phenyl)hexyl]-4-[2-(3,4-difluorophenoxy)ethyl]piperazine]: the IC50 was 5.2 µM.
The value for `CC(C)c1ccccc1N(C)CCN1CCN(CCCC(C#N)(c2ccccc2)C(C)C)CC1` (centres unmarked) [Example 93, 1-[(4-Cyano-5-methyl-4-phenyl)hexyl]-4-{2-[N-methyl(2-Isopropylanilino)ethyl]}piperazine] was 2.4 µM.
In the case of `CC(C)C(C#N)(CCCN1CCN(CCC(=O)Nc2ccc(F)cc2)CC1)c1ccccc1` (centres unmarked) [Example 63, 1-[(4-Cyano-5-methyl-4-phenyl)hexyl]-4-[2-(4-fluorophenylaminocarbonyl)ethyl]piperazine], the IC50 was found to be 7.4 µM.
With `CC(C)C(C#N)(CCCN1CCN(CCOc2ccc(F)cc2OCCO)CC1)c1ccccc1` (centres unmarked) [Example 87, 1-[(4-Cyano-5-methyl-4-phenyl)hexyl]-4-[2-(2-hydroxyethoxy-4-fluorophenoxy)ethyl]piperazine], the IC50 is above 16 µM.
`CC(C)C(C#N)(CCCN1CCN(CCOC(=O)Sc2ccc(F)cc2)CC1)c1ccccc1` (centres unmarked) [Example 70, 1-[(4-Cyano-5-methyl-4-phenyl)hexyl]-4-{2-[(4-fluorophenylthio)carbonyloxyl]ethyl}piperazine]: the IC50 was determined as 3.8 µM.
Consider `CC(C)C(C#N)(CCCN1CCN(CCOc2ccc(F)cc2)CC1)c1ccc(N(C)C)cc1` (centres unmarked) [Example 19, 1-[4-Cyano-5-methyl-4-(4-dimethylaminophenyl)hexyl]-4-[2-(4-fluorophenoxy)ethyl]piperazine], for which the concentration for half-maximal inhibition (IC50) came out at 6 µM.
Take `CC(C)C(C#N)(CCCN1CCN(CCOc2ccc(F)cc2)CC1)c1ccc(C=NO)cc1` (centres unmarked) [Example 14, 1-[4-Cyano-5-methyl-4-(4-hydroxyiminomethylphenyl)hexyl]-4-[2-(4-fluorophenoxy)ethyl]piperazine]: the IC50 came out at 8.7 µM.
On to `COC(=O)c1ccc(C(C#N)(CCCN2CCN(CCOc3ccc(F)cc3)CC2)C(C)C)cc1` (centres unmarked) [Example 12, 1-[4-Cyano-5-methyl-4-(4-carbomethoxyphenyl)hexyl]-4-[2-(4-fluorophenoxy)ethyl]piperazine], for which the IC50 was 8.1 µM.
The result for `CC(C)C(C#N)(CCCN1CCN(C(=O)COc2ccc(F)cc2)CC1)c1ccccc1` (centres unmarked) [Example 61, 1-[(4-Cyano-5-methyl-4-phenyl)hexyl]-4-[2-(4-fluorophenoxy)acetyl]piperazine] reads 11 µM; that for `CC(C)C(C#N)(CCCN1CCN(CCN(c2ccccc2)C2CCCCC2)CC1)c1ccccc1` (centres unmarked) [Example 90, 1-[(4-Cyano-5-methyl-4-phenyl)hexyl]-4-[2-(N-cyclohexylanilino)ethyl]piperazine], 2.6 µM; that for `CC(C)C(C#N)(CCCN1CCN(CCOCc2ccccc2)CC1)c1ccccc1` (centres unmarked) [Example 48, 1-[(4-Cyano-5-methyl-4-phenyl)hexyl]-4-[2-(benzyloxy)ethyl]piperazine], 8.4 µM.
For the molecule `COc1ccc(OCCN2CCN(CCCC(C#N)(c3ccccc3)C(C)C)CC2)cc1` (centres unmarked) [Example 39, 1-[(4-Cyano-5-methyl-4-phenyl)hexyl]-4-[2-(4-methoxyphenoxy)ethyl]piperazine], the IC50 worked out at 9.6 µM.
Regarding `CC(C)C(C#N)(CCN1CCN(CCOc2ccc(F)cc2)CC1)c1ccccc1` (centres unmarked) [Example 25, 1-[(3-Cyano-4-methyl-3-phenyl)pentyl]-4-[2-(4-fluourophenoxy)ethyl]piperazine], the IC50 came to 9.7 µM.
As for `CC(C)C(C#N)(CCCN1CCN(CCOc2cccc3ccccc23)CC1)c1ccccc1` (centres unmarked) [Example 103, 1-[(4-Cyano-5-methyl-4-phenyl)hexyl]-4-[2-(1-naphthyloxy)ethyl]piperazine], the IC50 worked out at 2.5 µM.
`CC(C)C(C#N)(CCCN1CCN(CCOc2cccc(F)c2)CC1)c1ccc(C#N)s1` (centres unmarked) [Example 115, 1-[4-Cyano-5-methyl-4-(2-cyano-5-thienyl)hexyl]-4-[2-(3-fluorophenoxy)ethyl]piperazine]: the IC50 was 5.8 µM.
With `CCC(C#N)(CCCN1CCN(CCOc2ccc(F)cc2)CC1)c1ccccc1` (centres unmarked) [Example 28, 1-[(4-Cyano-4-phenyl)hexyl]-4-[2-(4-fluorophenoxy)ethyl]piperazine], the IC50 stood at 7.2 µM.
As for `CC(C)C(C#N)(CCCN1CCN(CCOc2cccc(Br)c2)CC1)c1ccccc1` (centres unmarked) [Example 109, 1-[(4-Cyano-5-methyl-4-phenyl)hexyl]-4-[2-(3-bromophenoxy)ethyl]piperazine], the IC50 is 3.3 µM.
Take `CC(C)C(C#N)(CCCN1CCN(CCC(=O)c2ccc(F)cc2)CC1)c1ccccc1` (centres unmarked) [Example 59, 1-[(4-Cyano-5-methyl-4-phenyl)hexyl]-4-[2-(4-fluorobenzoyl)ethyl]piperazine]: the IC50 was 12 µM.
With `CC(C)C(C#N)(CCCN1CCN(CCOc2cccc(-c3ccccc3)c2)CC1)c1ccccc1` (centres unmarked) [Example 120, 1-[(4-Cyano-5-methyl-4-phenyl)hexyl]-4-[2-(3-phenylphenoxy)ethyl]piperazine], the IC50 amounted to 4.1 µM.

Values taken from US6737425B1, “N,N-substituted cyclic amine derivatives” (Eisai Co., Ltd., priority 1998, dated 2004).
